Publication PMC7324608 (Scientific Reports, 2020)
Positions count from the first letter of the chain named. pIC50: −log10 of the molar value. Like-named read-outs stand apart in the source and are kept apart here.

Legend:
HpHtrA [1] = molecular target: T1, HpHtrA (Helicobacter pylori, UniProt G2J5T2); experiment: FRET peptide assay of HpHtrA activity; type: biochemical; conditions: 5 µM FRET peptide, 250 nM HpHtrA, 37 °C, 50 mM HEPES pH 7.4, read-out: IC50 of HpHtrA inhibition
T1 construct: (HpHtrA, G18-K475, UniProt G2J5T2); GST (N, cleaved yes); made in house; host or cells: E. coli BL21
T1 sequence (G2J5T2 18-475): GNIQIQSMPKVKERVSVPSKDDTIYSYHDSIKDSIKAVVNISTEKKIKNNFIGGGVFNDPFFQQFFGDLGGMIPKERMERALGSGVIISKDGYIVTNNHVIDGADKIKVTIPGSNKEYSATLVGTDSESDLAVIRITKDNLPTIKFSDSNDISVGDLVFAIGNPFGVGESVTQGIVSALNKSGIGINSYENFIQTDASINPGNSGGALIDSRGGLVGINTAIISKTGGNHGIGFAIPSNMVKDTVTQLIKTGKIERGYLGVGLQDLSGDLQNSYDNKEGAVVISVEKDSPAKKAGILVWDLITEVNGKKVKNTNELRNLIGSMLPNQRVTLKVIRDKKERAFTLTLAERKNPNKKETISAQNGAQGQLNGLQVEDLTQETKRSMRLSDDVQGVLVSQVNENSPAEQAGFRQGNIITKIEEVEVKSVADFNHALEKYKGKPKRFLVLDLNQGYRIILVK
Source text: For the establishment of a FRET-based assay for the quantification of the HpHtrA activity, the 2-Abz/3-nitrotyrosine FRET pair[53]–[55] was introduced into the sequence AQRVAF: the fluorophore (2-Abz, Ex/Em 320/435 nm) was coupled at the N-terminus, whereas the quencher (3-nitrotyrosine, Ex 425 nm[56]) was positioned at the C-end. The FRET activity of this peptide was first confirmed by measuring the fluorescence emission in the range 400–450 nm before and after the trypsin-mediated cleavage of the peptide bond R_V (Fig. S3). The measurements were performed in a black, flat-bottom 96-well plate (Nunc, Thermo Scientific, Schwerte, Germany) at 37 °C. 5 µM of the peptide were incubated with 250 nM HpHtrA and 125 nM trypsin in 50 mM HEPES buffer (pH 7.4). […] Cleavage of the peptide leads to increasing fluorescence, which was measured in a plate reader (Infinite 200 PRO, TECAN, Groedig, Austria) with a filter setting of 320 nm/425 nm (Ex/Em). Statistical analysis was performed with GraphPad Prism software (Vers. 8.0.2). […] Three independent experiments containing three technical replicates were analyzed for every sample. Significance is indicated as non-significant (ns) for p > 0.05, * for p < 0.05, ** for p < 0.01, *** for p < 0.001, and **** for p < 0.0001.

HpHtrA [2] = molecular target: T1, HpHtrA; experiment: in vitro casein cleavage by HpHtrA (Coomassie SDS-PAGE); type: biochemical; conditions: 10 µg casein, 250 ng HpHtrA, 16 h, 37 °C; for effect on HtrA-mediated casein degradation: 1 mM
Source text: The proteins were separated by SDS-PAGE and visualized by staining with Coomassie Brilliant Blue G250 (Lactan, Vienna, Austria). […] Proteins were separated using SDS-PAGE and blotted onto a nitrocellulose membrane. Human Cdh1 was detected by an antibody recognizing the EC5 domain of hCdh1 (Abcam, Cambridge, UK) and a polyclonal serum was used to detect HpHtrA[22]. Independent experiments were repeated at least three times.

HpHtrA D168A = molecular target: T2, HpHtrA D168A (Helicobacter pylori, UniProt G2J5T2, D168A); experiment: thermal shift assay; type: binding; design: (HpHtrA, G18-K475, UniProt G2J5T2); GST (N, cleaved yes); made in house; host or cells: E. coli BL21
T2 sequence (G2J5T2 18-475 D168A): T1 sequence (G2J5T2 18-475) with D151A
Experimental: (§1) Recombinant HpHtrA proteins (wt, S164A, D165A, S166A, D168A) in 50 mM HEPES buffer (pH 7.4) were mixed with SYPRO Orange (Sigma-Aldrich, Vienna, Austria) to final concentrations of 4 µM HpHtrA and 7 × SYPRO Orange in a 96-well PCR plate. […] Fluorescence data was collected using an Applied Bioscience StepOne Plus PCR cycler (Thermo Fisher Scientific, Schwerte, Germany) during a temperature ramp from 25–95 °C (0.5 °C per min) with a 4 min hold at 25 °C and 95 °C. SYPRO Orange binds to exposed hydrophobic regions within the denatured HpHtrA proteins, which increases the fluorescence of the dye[57],[58]. The fluorescence emission signal can then be used to determine the melting temperature of the protein, which is located at the infliction point of the fluorescence signal curve. The experiment was performed in triplicates.

HpHtrA wt = molecular target: T3, HpHtrA wt (Helicobacter pylori, UniProt G2J5T2); experiment: thermal shift assay; type: binding; design: (HpHtrA, G18-K475, UniProt G2J5T2); GST (N, cleaved yes); made in house; host or cells: E. coli BL21
T3 sequence (G2J5T2 18-475): T1 sequence (G2J5T2 18-475)
Experimental: as §1

Structure (SMILES): [Cu+2] [Cu^++, CuCl2]
- pIC50 (HpHtrA [1]; after 15 min): 6.53
- pIC50 (HpHtrA [1]; after 180 min): 6.03
- concentration giving a slight inhibitory effect on casein cleavage (HpHtrA [2]): 250 µM
- effect on HtrA-mediated casein degradation (HpHtrA [2]): strongly inhibited
- thermal destabilization (ΔTm) (HpHtrA D168A; compared with wt and S164A): more strongly destabilized
- thermal destabilization (ΔTm) (HpHtrA wt; HpHtrA wt, higher concentrations of ion): destabilized
- thermal stabilization (ΔTm) (HpHtrA wt; HpHtrA wt, low concentrations of ion): stabilized

Structure (SMILES): [Zn+2] [Zn^++, ZnCl2]
- pIC50 (HpHtrA [1]; after 15 min): 6.19
- pIC50 (HpHtrA [1]; after 180 min): 5.59
- concentration giving a slight inhibitory effect on casein cleavage (HpHtrA [2]): 250 µM
- IC100 (HpHtrA [2]; read-out: concentration required to fully inhibit casein cleavage): 500 to 1000 µM
- effect on HtrA-mediated casein degradation (HpHtrA [2]): strongly inhibited
- thermal stabilization (ΔTm) (HpHtrA D168A; low/increasing concentrations of ion): did not stabilize
- concentration at which HpHtrA wt was stabilized (HpHtrA wt; 4 µM HpHtrA wt, SYPRO Orange, 25–95 °C): approximately 10 µM
